Results as given in patent publication US20100119595A1, “Monounsaturated fatty acids and perhydrocyclopentanophenanthrene nucleus combination molecules, and their precursors, and the use of all of these as weight-loss agents” (priority 2001, published 2010).
Marks after values point to notes of the source that are not given here.

What was measured:
[1] = Human study of 2 hydroxyestrone oleate (Example 11); format: in vivo; details: humans, oral capsule, 0.75 or 0.375 micromoles/kg
Procedure: In this random, double-blind, placebo controlled study, subjects are selected to one of three groups and take a capsule orally every morning containing one of the following: a) sunflower oil (placebo), b) 2 hydroxyestrone oleate dissolved in sunflower oil at a dose of 0.75 micromoles/kg, or c) 2 hydroxyestrone oleate dissolved in sunflower oil at a dose of 0.375 micromoles/kg. […]
Different tests are performed at least five different times during each study, namely at the screening of potential participants, at the beginning of the study, weekly during the trials, at the end of the first 4 week period and at the end of the second 4 week treatment period. • 1) SCREENING: Subjects are screened to exclude hypothyroidism, pregnancy, and heart disease. […] Subjects selected to participate in the studies have the following initial measurements: WEIGHT, WAIST to HIP RATIO, HEIGHT, BMI (calculated), BODY FAT % & TOTAL BODY FAT (via bioelectrical impedance method). […]
Ad libitum diets are followed, and food intake and appetite are assessed daily by the patient with an appropriate questionnaire and booklet. […]

[2] = system: MCF-7 human breast cancer cell line; assay: MCF-7 human breast cancer cell line test; format: cell-based; details: MCF-7 human breast cancer cells
Source text: The practical use of any compound given to humans for the treatment of obesity require, of course, that the compound not only be effective, but able to pass the FDA requirements and be approved as a drug suitable for humans. […] One test used to determine reactivity with human breast cancer cells is the “MCF-7 human breast cancer cell line test”. The lower the concentration of drug required to produce agonist activity, the more potential there is for problems with cancer causing &/or promotion in humans A comfortable level in the pharmaceutical industry would be a reactivity in the micromolar range. In the case of oleyl estrone, agonist activity begins at […]; with estrone eicosenoate, agonist activity begins at a ten times greater concentration of 1.0 nanomolar. This low concentration of agonist activity mitigates the possibility that these compounds would gain FDA approval for either drug.

[3] = Rabbit 10-day oral study: body weight and food consumed (Example 1); details: for FINAL WT.: one rabbit; for WT. Δ w/ Rx 10 days: control +0.14
Procedure: During the first 3 weeks, rabbits were only weighed and allowed to eat. On the fourth week, all rabbits were given 0.05 cc dose of peanut oil.
Five New Zealand white rabbits were obtained and caged in their natural environment (outside) and fed a cafeteria, ad libitum diet of rabbit chow. […] The appropriate weights of OE or EE were diluted in peanut oil to provide concentrations as follows: 1) OE, 2 mg/0.05 cc; 2) EE, 1 mg/0.05 cc; 3) 0.33 mg/0.05 cc; 4) EE, 0.1mg/0.05 cc, 5) EE, 0.03 mg/0.05 cc
For the initial three weeks, the rabbits were given no medicine or oil. Body weight and food consumed were measured daily; establishing a daily average for food consumed and weight change.
Rabbits received the assigned dose for 10 consecutive days. Rabbit weight (kg) and food eaten (grams) were determined daily.

[4] = EE 1 mg/d vs OE 2 mg/d, oral, rabbits

CCCCCCCC/C=C\CCCCCCCC(=O)Oc1cc2c(cc1O)[C@H]1CC[C@]3(C)C(=O)CC[C@H]3[C@@H]1CC2 [2HOE, 2 hydroxyestrone oleate]
appetite [1]: reduces appetite | weight loss, loss of body fat, and/or decrease of body fat% [1]: produces weight loss

CCCCCCCC/C=C\CCCCCCCCCC(=O)Oc1ccc2c(c1)CC[C@@H]1[C@@H]2CC[C@]2(C)C(=O)CC[C@@H]12 [EE, estrone eicosenoate]
concentration at which agonist activity begins [2]: 1.0 nM | FINAL WT. ([3]; EE 0.03 mg/d oral in peanut oil, 10 days, initial wt 4.00 kg): 4.17* kg | WT. Δ w/ Rx 10 days ([3]; EE 0.03 mg/d oral, 10 days, pre-Rx 10 day avg. +0.125): +0.17 kg | FOOD/DAY AVG. w/ Rx ([3]; EE 0.03 mg/d oral, 10 days, pre-Rx avg 163.6): 158.5 grams | FINAL WT. ([3]; EE 0.2 mg/d oral in peanut oil, 10 days, initial wt 3.50 kg): 3.56 kg | FOOD/DAY AVG. w/ Rx ([3]; EE 0.2 mg/d oral, 10 days, pre-Rx avg 151.1): 131.0 grams | FINAL WT. ([3]; EE 0.33 mg/d oral in peanut oil, 10 days, initial wt 4.09 kg): 4.01 kg | WT. Δ w/ Rx 10 days ([3]; EE 0.33 mg/d oral, 10 days, pre-Rx 10 day avg. +0.139): −0.08 kg | FOOD/DAY AVG. w/ Rx ([3]; EE 0.33 mg/d oral, 10 days, pre-Rx avg 151.6): 150.4 grams | FINAL WT. ([3]; EE 1 mg/d oral in peanut oil, 10 days, initial wt 3.73 kg): 3.37 kg | WT. Δ w/ Rx 10 days ([3]; EE 1 mg/d oral, 10 days, pre-Rx 10 day avg. +0.129): −0.36 kg | FOOD/DAY AVG. w/ Rx ([3]; EE 1 mg/d oral, 10 days, pre-Rx avg 138.3): 31.9 grams | amount of food eaten relative to the OE rabbit [3, 4]: approximately ⅓ | weight loss relative to OE over a 10-day period [3, 4]: more than three times the weight loss | weight gained compared with the Control rabbit ([3]; EE at 1/10 the dose of OE (0.2 mg/d), 10 days): less than half the weight gained by the Control rabbit | weight gained compared with the control ([3]; EE at lowest dose (0.03 mg/d), 10 days): gained more weight than even the control | weight loss less than that resulting from OE ([3]; EE at ⅙ the dose of OE (0.33 mg/d vs 2 mg/d), 10 days): 20%
